Test results from PubChem BioAssay AID179 (DTP/NCI, 2004).
The source made the active and inactive calls.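 The calls were made as follows: active = compounds giving half or more protection of infected cells from virus-caused growth loss, again on retest; inactive = the rest.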 Where a SMILES comes first, the peptide text is derived from it. The star is where a group is joined. Boc = CC(C)(C)OC(=O)*; OBn = c1ccc(CO*)cc1

Tested on: CEM cells HIV-1 protection, formazan growth assay
Experiment: NCI AIDS Antiviral Assay
Details: for IC50: measured here: growth of uninfected CEM cells
How it was run: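 Protection of CEM cells against HIV-1 measured as cell growth via soluble formazan read-out, with five concentrations tested on both infected and uninfected cells; failure to protect may reflect toxicity.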

Structure (SMILES)	EC50 [µM]	IC50 [µM]	outcome
[C-]#[O+].[C-]#[O+].[C-]#[O+].[C-]#[O+].[Cr].c1ccc(P(CCP(CCP(c2ccccc2)c2ccccc2)c2ccccc2)CCP(c2ccccc2)c2ccccc2)cc1 (stereo unspecified)	> 1.74	> 1.74	–
Cc1ccc(S(=O)(=O)Nn2c(-c3ccccc3)c(C#N)c(-c3ccc(N(C)C)cc3)c(C#N)c2=O)cc1	> 100	35.5	–
N#C/C(=C\NC(=S)NC1CCCCC1)c1nc2ccccc2s1	> 200	41.7	–
COc1ccc(CCn2c(=O)c3ccccc3n(C)c2=O)cc1	> 83.2	32.4	–
CCOc1ccc(NC(=O)CCc2nnc(SC)o2)cc1	> 162	> 162	–
CS(=O)(=O)C(CC(S(C)(=O)=O)S(C)(=O)=O)S(C)(=O)=O	> 20.4	> 20.4	–
O=C(O)c1cc(C(=CCCBr)c2cc(Cl)c(O)c(C(=O)O)c2)cc(Cl)c1O	117	219	–
CC1=NC(c2ccccc2)(C2(c3ccccc3)C(c3ccccc3)=C2c2ccccc2)C(=O)O1 (stereo unspecified)	> 6.17	> 6.17	–
CC(NC(=O)C(NC(=O)OC(C)(C)C)C(C)C)C(=O)N1CCCC1C(=O)NCC(=O)NC(C(=O)NCC(=O)OCc1ccccc1)C(C)C (stereo unspecified) (Boc-VAPGVG-OBn; configuration not given here)	> 200	> 200	–
CCCc1nc(NC#N)nc(C(=O)Nc2ccccc2)c1CC	> 407	> 407	–
CC(NC(=O)/C(C#N)=C/c1ccc2[nH]ccc2c1)c1ccccc1 (stereo unspecified)	> 42.7	> 42.7	–
CC(C)OC(=S)SSC(=S)NCCNC(=S)SSC(=S)OC(C)C	> 200	9.77	–
Nc1cccc(S(=O)(=O)N(CC(=O)O)c2ccccc2)c1	–	–	inactive
COC(=O)C1(c2ccc(N(C)C)cc2OC)CCCN(C(=O)Oc2ccccc2[N+](=O)[O-])CCc2c1[nH]c1ccccc21 (stereo unspecified)	> 200	> 200	–
CCOc1cnc([C@H]2CCC3[C@@H]4CC=C5C[C@@H](OC(=O)CCC(=O)O)CC[C@]5(C)C4CC[C@@]32C)s1 (stereo partly specified)	> 50.1	32.4	–
CC(=O)n1c(COc2ccc3c(C)cc(=O)oc3c2)nc2ccccc2c1=O	> 91.2	> 91.2	–
COC(=O)CCCC=C(c1cc(Cl)c(OC)c(C(=O)OC)c1)c1cc(Cl)c(OC)c(C(=O)OC)c1	1.62	21.4	–
OC12C3C4CC5C(C4[C@@H]1Br)C2[C@@](O)(c1c(F)c(F)c(F)c(F)c1F)C53 (stereo partly specified)	> 200	69.2	–
O=c1oc2ccccc2c(O)c1Cc1ccc(Cc2c(O)c3ccccc3oc2=O)cc1	> 200	182	–
Cc1ncc(CO)c(CO)c1OCC(O)CN1CCN(c2ccc(F)cc2)CC1 (stereo unspecified)	> 200	97.7	–
O=c1cc[nH]c(=O)n1C1CCC(CO)O1 (stereo unspecified)	> 200	> 200	–

Structure (SMILES)	EC50 [µM]	IC50 [µM]	outcome
CC(=O)OC[C@]12[C@H](OC(C)=O)[C@H](OC(C)=O)[C@@H]3C(OC(C)=O)[C@@]14OC3(C)COC(=O)c1cccnc1CCC(C)C(=O)OC([C@H](OC(C)=O)[C@@H]2OC(=O)c1ccccc1)[C@]4(C)O (stereo partly specified)	> 38.9	> 38.9	–
O=c1c(OS(=O)(=O)O)c(-c2ccc(OS(=O)(=O)O)c(OS(=O)(=O)O)c2)oc2cc(OS(=O)(=O)O)cc(OS(=O)(=O)O)c12	> 100	51.3	–
CC(C)(C)OC(=O)NCC(C#N)CNC(=O)OC(C)(C)C	> 603	> 603	–
Nn1c(SSSSc2nnc(-c3ccccc3)n2N)nnc1-c1ccccc1	> 200	> 200	–
[N-]=[N+]=CC(=O)C1CCCN1C(=O)c1ccccc1 (stereo unspecified)	> 200	> 200	–
CC1=NN(C(=O)c2ccccc2)C(C)C1N=Nc1ccccc1C(=O)O (stereo unspecified)	–	–	inactive
CC(=NNC(=S)Nc1ccccc1)c1cccc(C(C)=NNC(=S)Nc2ccccc2)n1	> 200	9.33	–
Cc1cc(NS(=O)(=O)c2ccc(Nc3c4ccccc4nc4c(C(N)=O)cccc34)cc2)no1	> 200	10.7	–
Oc1ccc2ccccc2c1CN1CCOCC1	132	186	–
COC(=O)C(C(=O)C(=O)Nc1ccccc1C)c1nc2ccc([N+](=O)[O-])cc2[nH]c1=O (stereo unspecified)	–	–	inactive
Cc1nn(C(=O)Cc2ccccc2)c2c1C(c1ccc(N(C)C)cc1)SC(N)=N2 (stereo unspecified)	55	> 200	–
C[P+]1(C)CCc2c1ccc1ccccc21	–	–	inactive
C1CCC(N2OC23CCCCC3)CC1 (stereo unspecified)	–	–	inactive
COc1ccc2c(c1)C(=O)C1NC(=O)NC(=O)C1(Br)N2 (stereo unspecified)	> 200	> 200	–
COc1ccc(C(=O)O/N=C2/CCCCC2CN(C)C)cc1 (stereo unspecified)	–	–	inactive
CNc1[nH]c(=S)nc2sc3c(c12)CCCC3	> 151	112	–
CN1CC2=C(NC(=S)NC2c2ccccc2Cl)/C(=C/c2ccccc2Cl)C1 (stereo unspecified)	> 200	13.2	–
O=C(O)CN1CCN(CC(=O)O)CCN(CC(=O)O)CC1	> 100	1.82	–
COC(=O)c1nn(C(=N)c2ccc(Cl)cc2)c2c1CCCCC2	> 380	> 380	–
CC(C)(C)OC(=O)c1cccnc1/C=N/O	> 589	186	–
CN(C)/C(N)=N/C(N)=Nc1cccc(Cl)c1	> 200	83.2	–

Structure (SMILES)	EC50 [µM]	IC50 [µM]	outcome
C=CC(C)(C)C12CC3C(=O)N/C(=C\c4cnc[nH]4)C(=O)N3C1Nc1ccccc12 (stereo unspecified)	> 200	91.2	–
Cc1ccc2[nH]c3nc4cc(C)c(C)cc4nc3c2c1	> 7.24	> 7.24	–
Cc1ccc(S(=O)(=O)N/N=C(\c2nc3ccc(Cl)cc3[nH]c2=O)C(O)c2cccc([N+](=O)[O-])c2)cc1 (stereo unspecified)	> 468	162	–
CC(=O)NC(CCCCNC(=O)OC(C)(C)C)C(=O)O (stereo unspecified)	> 200	> 200	–
O=c1c2cccnc2nc2ccc3c[nH][nH]c3c12	> 200	87.1	–
COC(=O)CC(SCCO)SCCO	> 200	> 200	–
O=C1N[C@@H](O)[C@@H]2ON=C(c3ccccc3)[C@H]12	> 1150	> 1150	–
CCN(CC)CC(C)C1NS(=O)(=O)c2ccccc21 (stereo unspecified)	> 200	> 200	–
Cc1cccc(NC(=O)C(=O)Cc2nc3ccccc3[nH]c2=O)c1C	–	–	inactive
CCOC(=O)NC(=O)c1cn(CCOC(=O)NCCCCCCNC(=O)OCCn2cc(C(=O)NC(=O)OCC)c(=O)[nH]c2=O)c(=O)[nH]c1=O	–	–	inactive
O=C1C(F)=CC(COC(c2ccccc2)(c2ccccc2)c2ccccc2)OC1n1cc(F)c(=O)[nH]c1=O (stereo unspecified)	> 2	0.479	–
CCOC1NC(=O)c2ccccc21 (stereo unspecified)	–	> 200	inactive
c1cc2[nH]snc2c2cncc12	> 200	11.2	–
Cc1nc(C(N)=S)sc1C(=O)CC(=O)C(=O)Nc1c(C(C)C)cccc1C(C)C	> 302	30.9	–
Nc1nn2c(=O)c3ccccc3nc2s1	> 200	89.1	–
COc1ccc(-n2[nH]nc(C(N)=O)c2=O)cc1	> 200	> 200	–
O=c1cc(-c2ccccc2)oc2ccc(Oc3nnnn3-c3ccccc3)cc12	> 200	> 200	–
[N-]=[N+]=Nc1c(Cc2ccccc2)c(=O)oc2ccccc12	> 200	32.4	–
CCOC1NC(/N=C/c2ccc(OC)cc2)=C(C#N)C1C#N (stereo unspecified)	> 200	24.5	–
CCOC(=O)C1(N=O)CCCCC1=O (stereo unspecified)	> 200	> 200	–
CC(F)(C(N)=O)C(N)=O	> 200	> 200	–

Structure (SMILES)	EC50 [µM]	IC50 [µM]	outcome
Cc1ccc(Nc2ncnc3sc(SCc4ccccc4)nc23)cc1	–	–	inactive
CC1CC(C#N)=C2NCCN2C1=O (stereo unspecified)	> 200	> 200	–
COc1ccc(C=O)cc1Oc1ccc(C[C@H]2c3c(cc(OC)c4c3Oc3cc5c(cc3O4)CCN(C)C5=O)CCN2C)cc1	> 200	9.77	–
CCCCN(CCC/C=C/OC)C(C#N)c1ccccc1 (stereo unspecified)	> 871	> 871	–
CCOC(=O)CNc1c(OCc2ccccc2)c(=O)c1=O	> 200	> 200	–
CN(C)c1c([O-])c(=[N+](C)C)c1=O	–	–	inactive
Cc1cc2c(C(C)C)c(O)c(O)c(C=NCC3CCCN4CCCCC34)c2cc1-c1cc2c(C=NCC3CCCN4CCCCC34)c(O)c(O)c(C(C)C)c2cc1C (stereo unspecified)	4.68	6.61	–
CN(CCc1ccccn1)C(=S)N/N=C/c1ccccn1	> 0.2	0.0251	–
O=C(O)[C@@H]1CSC(c2ccccc2F)N1 (stereo partly specified)	> 200	> 200	–
O=C1CCC(N2C(=O)C3C4C=CC(CC4)C3C2=O)C(=O)N1 (stereo unspecified)	> 871	> 871	–
N#Cc1c2c(c(Nc3ccc(F)cc3)n3c1nc1ccccc13)CCCC2	> 200	81.3	–
CC(C)c1ccc(C(c2ccc(OCC(=O)NCCN(C)C)cc2)c2ccc(C(C)C)cc(=O)c2O)c(O)c(=O)c1	–	–	inactive
Cc1ccc(CC2(C(=O)O)Cc3ccc(C)cc3C2)cc1 (stereo unspecified)	> 200	57.5	–
O=C(Nc1nc(=S)c2c(ncn2CCO)[nH]1)c1ccccc1	> 575	28.2	–
CO[C@@H]1[C@@H](OC2OC(C)C(OC3CC(C)(O)C(OC(=O)CC(C)C)C(C)O3)C(N(C)C)C2O)[C@@H](CC=O)C[C@@H](C)C(=O)/C=C/C2O[C@H]2C[C@@H](C)OC(=O)C[C@H]1OC(C)=O (stereo partly specified)	> 148	7.76	–
S=P(c1ccccc1)(c1ccccc1)C1(C2(P(=S)(c3ccccc3)c3ccccc3)CC2)CC1	> 10	> 10	–
Cc1cn(COCCOS(C)(=O)=O)c(=O)[nH]c1=O	> 200	> 200	–
CC1(C)CC(O)C(C)(C)[C@@H](O)C1 (stereo partly specified)	–	–	inactive
NS(=O)(=O)c1cc2c(cc1Cl)NC(/C(=N/NC(=O)c1ccncc1)C1C(=O)NC(=O)NC1=O)=NS2(=O)=O	> 87.1	> 87.1	–
O=C(NNC(=O)c1ccccc1S)c1ccccc1S	4.17	14.5	–
COC(=O)c1c[nH]c2c1-c1cc(C(=O)OCc3ccccc3)n(S(=O)(=O)c3ccc(C)cc3)c1C(=O)C2=O	> 200	3.72	–
